Data published in patent publication US7033789B1, “DNA molecules encoding L-glutamate-gated chloride channels from Schistocerca americana” (Merck & Co., Inc., priority 1999, dated 2006).

Legend:
[1] = system: SaGluCl1 (short form “SC”) glutamate-gated chloride channel; assay: Two microelectrode voltage clamp of Xenopus oocytes expressing SaGluCl1; format: cell-based, Schistocerca americana; conditions: for current elicited on application of the compound: Xenopus oocyte, SaGluCl1 short form SC, membrane potential held at 0 mV (FIG. 3); for activation of the channel (chloride current): short form of SaGluCl1 in Xenopus laevis oocytes
Excerpt: The measurement is made with the two microelectrode voltage clamp technique and the membrane potential was held at 0 mV. Two current recordings are superimposed. The bars at top show the duration of application of glutamate and ivermectin phosphate.
Full length cDNA clones corresponding to the selected RT-PCR sequences were used as template for synthesis of in vitro transcribed RNA (Ambion Inc.). The full-length cDNA encoding SaGluCl1 in a Bluescript plasmid is linearized and capped cRNA transcripts are synthesized using appropriate oligonucleotide primers and the mMESSAGE mMACHINE in vitro RNA transcription kit from Ambion. Xenopus laevis oocytes were prepared and injected using standard methods as described (Arena et al., 1991, Mol. Pharmacol. 40: 368–374; Arena et al, 1992, Mol. Brain Res. 15: 339–348). Adult female Xenopus laevis were anesthetized with 0.17% tricaine methanesulfonate and the ovaries were surgically removed and placed in a dish consisting of (mM): NaCl 82.5, KCl 2, MgCl2 1, CaCl2 1.8, HEPES 5, adjusted to pH 7.5 with NaOH(OR-2). Ovarian lobes were broken open, rinsed several times, and gently shaken in OR-2 containing 0.2% collagenase (Sigma, Type 1A) for 2–5 hours. When approximately 50% of the follicular layers were removed, Stage V and VI oocytes were selected and placed in media consisting of (mM): NaCl 86, KCl 2, MgCl2 1, CaCl2 1.8, HEPES 5, Na pyruvate 2.5, theophylline 0.5, gentamicin 0.1 adjusted to pH 7.5 with NaOH (ND-96) for 24–48 hours before injection. For most experiments, oocytes were injected with 10 ng of cRNA in 50 nl of RNase free water. Control oocytes were injected with 50 nl of water. Oocytes were incubated for 1–5 days in ND-96 supplemented with […] gentamycin, 2.5 mM Na pyruvate and 0.5 mM theophylline before recording. Incubations and collagenase digestion were carried out at 18° C.
Voltage-clamp studies were conducted with the two microelectrode voltage clamp technique using a Dagan CA1 amplifier (Dagan Instruments, Minneapolis, Minn.). The current passing microelectrodes were filled with 0.7 M KCl plus 1.7 M K3-citrate and the voltage recording microelectrodes were filled with 1.0 M KCl. The extracellular solution for most experiments was saline consisting of (mM): NaCl 96, BaCl2 3.5, MgCl2 0.5, CaCl2 0.1, HEPES 5, adjusted to pH 7.5 with NaOH. The extracellular chloride concentration was reduced in some experiments by equimolar replacement of NaCl with the sodium salt of the indicated anion. Experiments were conducted at 21–24° C. Data were acquired using the program Pulse and most analysis was performed with the companion program Pulsefit (Instrutech Instruments, Great Neck, N.Y.) or with Igor Pro (Wavemetrics, Lake Oswego, Oreg.). Data were filtered (fc, −3 db) at 1 kHz, unless otherwise indicated. […] The measurement was made as described in this Example with the two microelectrode voltage clamp technique and the membrane potential was held at 0 mV. Two current recordings are superimposed. The bars at top show the duration of application of glutamate and ivermectin phosphate.

[2] = system: SaGluCl1 (short form “SC”) expressed in CHO cells; assay: Current measurement in CHO cells expressing SaGluCl1; format: cell-based, Schistocerca americana
Protocol: FIG. 4A and FIG. 4B show the SaGluCl1 (short form “SC”) expressed in CHO cells assembles into a homomultimer and is activated by ivermectin (FIG. 4A) and nodulasporic acid (FIG. 4B). 100 nM ivermectin and 1 μM nodulasporic acid were added at 20 seconds and current was measured.
PTet-Splice subclones of SaGluCl1 and SaGluCl2 as disclosed in Example section 1 were transfected into CHO Tet-Off cells (Clontech labs, Inc.) using the Lipofectamine Plus reagent (Life Technologies Inc.). Stable cell lines are selected by growth in the presence of G418. Single G418 resistant clones are isolated and shown to contain the intact SaGluCl gene. Clones containing the SaGluCl cDNAs may be analyzed for expression using immunological techniques, such as immuneprecipitation, Western blot, and immunofluorescence using antibodies specific to the SaGluCl proteins. Antibody may obtained from rabbits innoculated with peptides that are synthesized from the amino acid sequence predicted from the SaGluCl sequences. Expression is also analyzed using patch clamp electrophysiological techniques, an anion flux assay, and ^3H-ivermectin and ^3H-glutamate binding assays.
The expression of recombinant SaGluCl1 and/or SaGluCl2 is achieved by transfection of the full-length SaGluCl cDNA into a mammalian host cell described herein.

## N[C@@H](CCC(=O)O)C(=O)O [glutamate, L-glutamate]
[1]
  current elicited on application of the compound: elicited a rapidly desensitizing current
  activation of the channel (chloride current): robust L-glutamate-gated chloride current

## CC[C@H](C)[C@H]1O[C@]2(CC[C@@H]1C)C[C@@H]1C[C@@H](C/C=C(\C)[C@@H](O[C@H]3C[C@H](OC)[C@@H](O[C@H]4C[C@H](OC)[C@@H](O)[C@H](C)O4)[C@H](C)O3)[C@@H](C)/C=C/C=C3\CO[C@@H]4[C@H](O)C(C)=C[C@@H](C(=O)O1)[C@]34O)O2 [ivermectin, 22,23-dihydro-avermectin B1a]
[1]
  activation of the channel (chloride current): activated
[2]; 100 nM added at 20 seconds (FIG. 4A)
  activation of homomultimer channel, current measured: activated

## ivermectin phosphate
[1]
  current elicited on application of the compound: elicited a current of similar amplitude, but the channel stayed open much longer

## nodulasporic acid
[1]
  activation of the channel (chloride current): activated
[2]; 1 μM added at 20 seconds (FIG. 4B)
  activation of homomultimer channel, current measured: activated
